Results reported in patent US8318767B2, “Substituted imidazoles as bombesin receptor subtype-3 modulators” (Merck Sharp & Dohme Corp, priority 2006, dated 2012).

Biological target: T1, human BRS-3 (Homo sapiens, UniProt P32247)
T1 construct: expressed in transfected cells
T1 sequence (P32247 1-399): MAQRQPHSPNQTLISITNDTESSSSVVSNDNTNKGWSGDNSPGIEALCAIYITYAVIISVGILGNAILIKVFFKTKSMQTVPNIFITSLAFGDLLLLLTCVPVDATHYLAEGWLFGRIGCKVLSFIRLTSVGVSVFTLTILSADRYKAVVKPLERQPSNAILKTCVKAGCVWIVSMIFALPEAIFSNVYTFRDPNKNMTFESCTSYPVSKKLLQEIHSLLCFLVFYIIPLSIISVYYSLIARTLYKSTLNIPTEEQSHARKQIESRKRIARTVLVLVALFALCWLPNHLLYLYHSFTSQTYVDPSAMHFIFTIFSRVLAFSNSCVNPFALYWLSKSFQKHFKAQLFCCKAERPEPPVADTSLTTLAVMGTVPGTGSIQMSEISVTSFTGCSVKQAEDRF
Test: Bombesin Receptor Subtype 3 (BRS3) radioligand binding assay
Details: selected compounds
Protocol: Human embryonic kidney (HEK 293) cells expressing human BRS-3 were cultured to confluence and harvested by aspirating the culture medium and rinsing twice with 1×PBS without Mg^++ and Ca^++. Cellstriper Solution (Cellgrow #25-056-C1, 3 mL) was added to each T-175 flask until all cells dissociated and then an additional 15 mL 1×PBS without Mg^++ and Ca^++ were added to each flask. Dissociated cells were collected by centrifuging at 1000 rpm for 10 minutes. Cell pellets were resuspended and homogenized at 4° C. using a Polytron homogenizer (setting 40, 20 stokes) in approximately 10 mL membrane preparation buffer (10 mM Tris pH 7.4, 0.01 mM Pefabloc, 10 μM phosphoramidon and 40 μg/mL Bacitracin) per T175 flask. After centrifugation at 2200 rpm (1000×g) for 10 minutes at 4° C., the supernatant was transferred to a clean centrifuge tube and spun at 18,000 rpm (38,742×g) for 15 minutes. at 4° C. Membranes were resuspended in the above membrane preparation buffer (1 mL/T-175 flask), homogenized, aliquoted, quickly frozen in liquid nitrogen and stored at −80° C.
For the [^125I]-[D-Tyr^6,β-Ala^11,Phe^13,Nle^14]-Bombesin(6-14), “[^125I]-dY-peptide”, radioligand assay the specific binding of [^125I]-dY-peptide to human BRS3 was measured by filtration assay in 96-well plate format. The receptor membrane (2 μg/well) in binding buffer (50 mM Tris pH 7.4, 5 mM MgCl2, 0.1% BSA and protease inhibitor cocktail) was mixed with compound in DMSO (1% final concentration) and 30 pM [^125I]-dY-peptide. After incubation for 1-2 hours at room temperature, membrane-bound [^125I]-dY-peptide was separated from free [^125I]-dY-peptide by filtering through GF/C filters presoaked in 1% PEI solution. The filters were washed five times with ice-cold washing buffer (1×PBS without Mg^++ and Ca^++). The radioactivity was determined by adding 30 μl of microscintillant/well after each plate was dried at room temperature overnight or placed at 50° C. for 1 hr.
The radioligand, [^3H]-1-{4-[(4,5-difluoro-2-hydroxycarbonylphenyl)phenyl]}-2-(4-cyclohexylmethyl-1H-imidazol-2-yl)ethane, was used for binding to receptor membranes generated with BRS3 from rat and mouse and was also utilized for the human receptor. Cell membranes (5 to 20 μg/well) were added to binding buffer (25 mM Tris pH 7.4, 10 mM MgCl2, 2 mM EDTA and protease I cocktail) containing compound in DMSO (1% final concentration) and 660 pM [^3H]-biphenyl. After incubation for 1-2 hours at room temperature, membrane bound [^3H]-biphenyl was separated from free radiologand by filtering through GF/C filters presoaked in 1% PEI solution. The filters were washed five times with ice-cold washing buffer (50 mM Tris pH 7.4, 10 mM MgCl2, 2.5 mM EDTA and 0.02% Triton X-100). The radioactivity was determined by adding 30 μl of microscintillant/well after each plate was dried at room temperature overnight or placed at 50° C. for 1 hr.
A Packard Top Count was used to read the filter plates. The data in % inhibition of binding was plotted vs. the log molar concentration of receptor ligand (compound). The IC50 was reported as the inflection point of the resulting sigmoidal curve.
The binding assays for the rat and mouse Bombesin Receptor Subtype 3 (BRS3) were performed in a similar fashion.
An NFATCHO cell line stably expressing human BRS3 cDNA was generated using standard cell biology techniques and used to prepare receptor membranes for the human “[^125I]-dY-peptide binding assay. The cell line was cultured in T175 flasks in Iscove's Modified Dulbecco's Medium with L-glutamine and 25 mM HEPES buffer (Gibco #12440-046) supplemented with 10% FBS (cat#SH30070.03, Hyclone, Logan, Utah), 1×HT Supplement (0.1 mM Sodium Hypoxanthine and 16 μM Thymidine Gibco #11067-030), 2 mM L-glutamine (Gibco #25030-081), 100 units/mL Penicillin-G and 100 μg/mL Streptomycin (Gibco #15140-122) and 1 mg/mL Geneticin (Gibco #10131-027).

IC50 [nM] | SMILES
190 | CC(C)(C)Cc1c[nH]c(C(C)(O)Cc2ccc(-c3ccc(F)cn3)cc2)n1 (stereo not drawn) [Example 15, 2-[4-(2,2-dimethylpropyl)-1H-imidazol-2-yl]-1-[4-(5-fluoropyridin-2-yl)phenyl]propan-2-ol]
195 | CC(C)(C)Cc1c[nH]c(C(C)(O)Cc2ccc(-n3cccn3)cc2)n1 (stereo not drawn) [Example 33, 2-[4-(2,2-dimethylpropyl)-1H-imidazol-2-yl]-1-[4-(1H-pyrazol-1-yl)phenyl]propan-2-ol]
220 | CC(=O)NC(Cc1ccc(-c2ccc(F)cn2)cc1)c1nc(CC(C)(C)C)c[nH]1 (stereo not drawn) [Example 9, N-{1-[4-(2,2-dimethylpropyl)-1H-imidazol-2-yl]-2-[4-(5-fluoropyridin-2-yl)phenyl]ethyl}acetamide]
285 | CCC(C)(C)Cc1c[nH]c(C(Cc2ccc(-c3ccc(F)cn3)cc2)NC)n1 (single isomer, unassigned) [Example 6, 1-[4-(2,2-dimethylbutyl)-1H-imidazol-2-yl]-2-[4-(5-fluoropyridin-2-yl)phenyl]-N-methylethanamine]
120 | CC(C)(C)Cc1c[nH]c(C(O)Cc2ccc(-c3ccccn3)cc2)n1 (stereo not drawn) [Example 1, 1-[4-(2,2-dimethylpropyl)-1H-imidazol-2-yl]-2-(4-pyridin-2-ylphenyl)ethanol]
58 | CCC(C)(C)Cc1c[nH]c(C(C)(O)Cc2ccc(-c3ccc(F)cn3)cc2)n1 (stereo not drawn) [Example 29, 2-[4-(2,2-dimethylbutyl)-1H-imidazol-2-yl]-1-[4-(5-fluoropyridin-2-yl)phenyl]propan-2-ol]
5.1 | CCC(C)(C)Cc1c[nH]c(C2(Cc3ccc(-c4ccc(F)cn4)cc3)CCCN2)n1 (stereo not drawn) [Example 55, 2-[4-({2-[4-(2,2-dimethylbutyl)-1H-imidazol-2-yl]pyrrolidin-2-yl}methyl)phenyl]-5-fluoropyridine]
245 | CCNC(Cc1ccc(-c2ccccn2)cc1)c1nc(CC(C)(C)C)c[nH]1 (stereo not drawn) [Example 3, 1-[4-(2,2-dimethylpropyl)-1H-imidazol-2-yl]-N-ethyl-2-(4-pyridin-2-ylphenyl)ethanamine]
110 | CC(C)(C)Cc1c[nH]c(C(O)Cc2ccc(-c3ccc(F)cn3)cc2)n1 (stereo not drawn) [Example 18, 1-[4-(2,2-dimethylpropyl)-1H-imidazol-2-yl]-2-[4-(5-fluoropyridin-2-yl)phenyl]ethanol]
